Experimental findings from patent publication KR20180046249A, “리소스퍼믹 액시드를 포함하는 구강질환 예방 또는 치료용 조성물” (주식회사 엘지생활건강, priority 2016, dated 2018) are described below.

Common to all, as to assay type: cell-based
In one test the test system is Streptococcus mutans. Kind of test: Paper disc antibacterial test, Streptococcus mutans. The following applies: 24-48 h incubation, untreated: no inhibition.
In the next test the test system is PGE2. Kind of test: PGE2 inhibition in LPS-stimulated macrophages (ELISA). The following applies: LPS 1 ㎍/ml. (An ELISA detects its analyte on a solid surface through an enzyme-linked reagent.)
Another test relates to Porphyromonas gingivalis. As to the kind of experiment: Paper disc antibacterial test, Porphyromonas gingivalis. The following applies: anaerobic, 24-48 h incubation, untreated: no inhibition.

Molecules are shown by their SMILES.

For `O=C(/C=C/c1ccc(O)c2c1[C@H](C(=O)O)[C@@H](c1ccc(O)c(O)c1)O2)O[C@H](Cc1ccc(O)c(O)c1)C(=O)O` [리소스퍼믹 액시드, lithospermic acid], the “growth inhibition zone diameter” value with Streptococcus mutans (10 mg/disc, 8 mm disc, 37, BHI) is approximately 10.0 mm; in the test on Porphyromonas gingivalis (10 mg/disc, 8 mm disc, 37, TSA Hemin Menadione medium) it was approximately 10.0 mm. The zone of inhibition at 10 mg/disc in the test with Streptococcus mutans (Streptococcus mutans, 8 mm disc, 37, BHI, read-out: growth inhibition zone diameter) amounted to 10.7 mm; in the test with Porphyromonas gingivalis (Porphyromonas gingivalis, 8 mm disc, 37, TSA Hemin Menadione medium, read-out: growth inhibition zone diameter), 9.8 mm. Besides, in the test on PGE2, the “PGE2 inhibition, concentration dependence (in words)” value is given as “농도 의존적으로 PGE2를 억제하는 효과”. Besides, the inhibition (commonly the drop in the measured response relative to a control, in per cent) at 2 ppm in the test on PGE2 (Macrophage, 2ppm, 24 h, compared with LPS-only group) was approximately 50%. The same molecule gave an inhibition at 20 ppm in the test on PGE2 (Macrophage, 20ppm, 24 h, compared with LPS-only group) of approximately 70%.
